The results in this text go back to patent US20090305321A1, “Assays for Allosteric Modulators of G-Protein Coupled Receptors (GPCRs)” (ASTRAZENECA AB, priority 2005, published 2009).

By IC50 is commonly meant the concentration that gives 50% inhibition. As a reminder, the inhibition is the share of the control response that was lost under treatment. Low values mean little suppression, high ones strong suppression.

For one assay, the target named is T1, CCR2b (Homo sapiens, UniProt P41597).
T1 sequence (P41597 1-360 isoform P41597-2): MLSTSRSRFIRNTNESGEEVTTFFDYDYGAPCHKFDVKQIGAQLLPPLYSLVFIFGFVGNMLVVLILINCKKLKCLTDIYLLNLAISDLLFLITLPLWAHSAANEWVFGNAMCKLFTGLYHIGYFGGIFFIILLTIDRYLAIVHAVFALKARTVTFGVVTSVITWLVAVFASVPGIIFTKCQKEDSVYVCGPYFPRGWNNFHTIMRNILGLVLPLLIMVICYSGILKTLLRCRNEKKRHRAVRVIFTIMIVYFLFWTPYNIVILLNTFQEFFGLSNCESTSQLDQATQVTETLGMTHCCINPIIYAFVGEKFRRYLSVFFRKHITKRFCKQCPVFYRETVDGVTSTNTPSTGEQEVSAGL
Briefly: Chemokine receptor panel (assays similar to Example 1 and 2), CCR2b. The assay is classed as binding.

The target in assay [1] is T2, GST-CXCR2 fusion protein (human CXCR2 residues G318 to L360) (Homo sapiens, UniProt P25025).
T2 construct: made in house; host or cells: E. coli
T2 sequence (P25025 with tags, fused parts or gaps): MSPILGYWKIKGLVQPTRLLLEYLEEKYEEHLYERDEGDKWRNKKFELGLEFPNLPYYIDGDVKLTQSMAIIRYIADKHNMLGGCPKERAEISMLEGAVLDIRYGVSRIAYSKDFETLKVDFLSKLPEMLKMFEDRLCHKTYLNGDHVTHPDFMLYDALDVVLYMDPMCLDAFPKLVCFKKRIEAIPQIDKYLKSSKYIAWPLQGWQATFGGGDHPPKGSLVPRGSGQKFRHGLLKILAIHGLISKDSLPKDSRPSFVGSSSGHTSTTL
Kind of assay: [3H]Compound A radioligand binding to GST-CXCR2 C terminal tail. As to conditions: 20 nM [3H]Compound A, FIG. 21, average of three experiments. How it is done:
An expression construct which encodes for S. Japonicum glutathione-S-transferase (GST) fused to the last 43 amino acids of human CXCR2 (residues G318 to L360) was generated by standard molecular biological techniques.
The protein was expressed in E. coli and the resulting fusion protein was purified from the cell extract via chromatography using a 5 ml GSTrap column (Amersham) which binds GST containing proteins, and eluted using 10 mM reduced glutathione in the elution buffer. At the same time GST without a CXCR2 C-terminal tail was also expressed and purified as a control. Both proteins had the excess 10 mM glutathione removed using a XK26/10 desalting column (Amersham).
Protein solutions (50 μL dilutions starting at 1.28 mg/ml) of either GST-CXCR2 fusion or wild type GST were then added, giving a total incubation volume of 200 μL per well.
A GF-B filter plate was set up containing 50 μl of 1 mg/ml gelatine in PBS in each well, which was then filtered through the plate and discarded. […] After filtering, 100 μl filtrate was transferred to a lumaplate and dried down in a 50° C. oven overnight and then counted on the TopCount instrument (Packard BioScience)

The next assay has as its target T3, CXCR1 (Homo sapiens, UniProt P25024).
T3 sequence (P25024 1-350): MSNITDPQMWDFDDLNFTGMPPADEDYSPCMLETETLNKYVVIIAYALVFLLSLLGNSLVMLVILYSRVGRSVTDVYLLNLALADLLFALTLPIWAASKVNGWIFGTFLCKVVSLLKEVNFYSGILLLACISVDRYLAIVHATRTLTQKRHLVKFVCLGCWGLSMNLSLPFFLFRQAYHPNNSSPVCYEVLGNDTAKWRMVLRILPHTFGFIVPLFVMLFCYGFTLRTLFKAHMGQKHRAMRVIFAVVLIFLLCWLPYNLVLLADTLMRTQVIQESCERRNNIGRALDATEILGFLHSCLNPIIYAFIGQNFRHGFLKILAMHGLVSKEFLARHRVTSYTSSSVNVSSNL
Kind of assay: Chemokine receptor panel (assays similar to Example 1 and 2), CXCR1. The assay is classed as binding. An excerpt:
(§1) All points were reproduced in triplicate on each plate.

For another assay, the target named is T4, wild type GST (Schistosoma japonicum, UniProt P08515).
T4 construct: made in house; host or cells: E. coli
T4 sequence (P08515 whole entry): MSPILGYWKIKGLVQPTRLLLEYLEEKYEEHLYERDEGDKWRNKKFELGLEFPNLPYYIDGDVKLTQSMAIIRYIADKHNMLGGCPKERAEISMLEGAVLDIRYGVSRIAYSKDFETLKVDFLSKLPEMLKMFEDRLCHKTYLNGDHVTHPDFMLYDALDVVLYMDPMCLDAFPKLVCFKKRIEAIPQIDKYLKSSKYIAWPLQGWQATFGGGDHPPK
Briefly: [3H]Compound A radioligand binding to wild type GST control. As to conditions: 20 nM [3H]Compound A; FIG. 21, average of three experiments.

The target in a further assay is T5, CCR1 (Homo sapiens, UniProt P32246).
T5 sequence (P32246 1-355): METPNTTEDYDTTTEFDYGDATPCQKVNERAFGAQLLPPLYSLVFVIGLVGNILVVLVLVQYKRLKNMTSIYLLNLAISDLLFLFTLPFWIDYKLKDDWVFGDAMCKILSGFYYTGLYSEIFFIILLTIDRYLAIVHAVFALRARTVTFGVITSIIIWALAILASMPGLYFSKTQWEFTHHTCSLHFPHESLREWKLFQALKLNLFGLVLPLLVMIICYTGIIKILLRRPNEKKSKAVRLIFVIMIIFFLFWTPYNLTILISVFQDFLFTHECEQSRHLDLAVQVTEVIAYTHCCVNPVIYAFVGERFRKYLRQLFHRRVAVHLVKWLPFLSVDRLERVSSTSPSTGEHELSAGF
Briefly: Chemokine receptor panel (assays similar to Example 1 and 2), CCR1. The assay is classed as binding. As to conditions: CCR1, 10 uM.

Assay [2] concerns the target T6, CXCR2 (Homo sapiens, UniProt P25025).
T6 construct: expressed in transfected cells
T6 sequence (P25025 1-360): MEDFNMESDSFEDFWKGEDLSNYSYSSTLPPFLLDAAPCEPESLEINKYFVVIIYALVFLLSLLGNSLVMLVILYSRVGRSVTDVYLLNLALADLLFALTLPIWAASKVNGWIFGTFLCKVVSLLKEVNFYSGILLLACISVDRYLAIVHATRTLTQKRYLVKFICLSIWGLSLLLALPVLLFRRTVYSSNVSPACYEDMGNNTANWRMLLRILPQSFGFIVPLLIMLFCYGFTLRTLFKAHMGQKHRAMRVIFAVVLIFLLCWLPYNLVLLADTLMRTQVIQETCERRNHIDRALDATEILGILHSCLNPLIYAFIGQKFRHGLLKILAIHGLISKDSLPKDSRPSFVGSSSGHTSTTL
Briefly: HEK FLIPR intracellular calcium assay, wild type CXCR2. Type of assay: cell-based. As to conditions: Compound A 30 nM (10 nM and 30 nM in Example 5), Compound B 100 nM. As to the method:
HEK cells, transfected with the human recombinant CXCR2 receptor, were grown to approximately 80% confluence in 225 cm^2 flasks in DMEM-Glutamax medium containing, non-essential amino acids, 10% (v/v) FCS in a humidified incubator at 37° C., 5% CO2. Cells were harvested from the flask using 10× trypsin at 37° C. for 1 to 2 minutes.
as §1
A general note: Calcium assays in cells follow changes in intracellular calcium, usually with a dye or a luminescent sensor.

A further assay deals with T7, CX3CR1 (Homo sapiens, UniProt P49238).
T7 sequence (P49238 1-355): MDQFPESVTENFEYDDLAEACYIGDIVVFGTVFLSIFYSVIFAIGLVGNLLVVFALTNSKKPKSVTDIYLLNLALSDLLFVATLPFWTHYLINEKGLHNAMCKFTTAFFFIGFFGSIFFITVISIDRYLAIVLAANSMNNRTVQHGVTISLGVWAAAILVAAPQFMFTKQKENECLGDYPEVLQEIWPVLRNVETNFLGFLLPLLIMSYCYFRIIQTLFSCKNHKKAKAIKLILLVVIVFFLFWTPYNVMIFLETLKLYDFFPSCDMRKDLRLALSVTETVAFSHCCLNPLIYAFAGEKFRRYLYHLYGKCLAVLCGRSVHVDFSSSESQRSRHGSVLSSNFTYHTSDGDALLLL
Briefly: biochemical.

The target in a further assay is CCR5 (Homo sapiens, UniProt P51681). Briefly: Chemokine receptor panel (assays similar to Example 1 and 2), CCR5. The assay is classed as binding. The following applies: CCR5, 10 uM. As to the method:
(§2) Membranes (80 μL of 1×10^6 cell equivalents/mL) were then added, giving a total incubation volume of 100 μL per well. The plates were incubated for 2 hours at room temperature.
(§3) HEK 293 transfectants were seeded at 5×10^4 cells per well in 96 well poly-D lysine coated black with clear bottom plates (Becton Dickinson) and cultured for 16 h at 37° C. with an atmosphere of 5% CO2/95% air to form confluent monolayers. The following day cells were loaded with 5 μM Flura 3 AM diluted in tyrodes solution (137 mM NaCl, 10 mM HEPES, 0.441 mM KH2PO4, 2.67 mM KCl, 1.8 mM CaCL2, 1 mM MgCl2) with 6.25 mM probenecid at pH7.4, 100 μl per well and incubated at 37° C. with an atmosphere of 5% CO2/95% air for 1 h. After which the loading media was removed and the cells washed twice with PBS/HEPES solution (100 μl per well) then overlayed with 50 μl assay buffer (tyrodes buffer without probenecid). 50 μl inhibitor compound or 50 μl 0.2% (v/v) DMSO carrier diluted in assay buffer was then added per well and incubated for 30 minutes at room temperature before the addition of 50 μl 3 mM Carbachol per well. Calcium flux responses were measured using a Fluorometric Imaging Plate Reader (Molecular Devices) for 3 minutes before the addition of either IL-8 (50 μl, 1×10^−7-3×10^−11 M final concentration) or GROalpha. […] Fluorescence readings were taken every 2 seconds for a total run time of 6 minutes.

The next assay concerns the target T8, CCR4 (Homo sapiens, UniProt P51679).
T8 sequence (P51679 1-360): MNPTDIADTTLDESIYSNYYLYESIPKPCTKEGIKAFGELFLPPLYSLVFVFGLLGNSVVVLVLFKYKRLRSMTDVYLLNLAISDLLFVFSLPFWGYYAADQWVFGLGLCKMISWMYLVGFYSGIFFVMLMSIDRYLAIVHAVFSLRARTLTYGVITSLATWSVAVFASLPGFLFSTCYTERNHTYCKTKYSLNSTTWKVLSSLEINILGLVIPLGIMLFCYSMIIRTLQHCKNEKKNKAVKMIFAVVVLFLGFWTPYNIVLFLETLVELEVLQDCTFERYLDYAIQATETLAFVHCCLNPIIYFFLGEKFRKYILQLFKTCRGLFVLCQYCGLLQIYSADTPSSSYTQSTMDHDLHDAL
Kind of assay: Chemokine receptor panel (assays similar to Example 1 and 2), CCR4. The assay is classed as binding. How it is done:
as §2, §3

The target of assay [3] is T6, CXCR2. Kind of assay: [3H]-Compound C binding assay on CXCR2 membranes. As to conditions: 20 nM [3H]Compound C, FIG. 3. As to the method:
Following incubation, the plate containing the assay mixture was transferred to GF-B plates and filter-washed with cold HEPES-buffered salt solution using a Tomtec harvester. The filtration plate was allowed to air dry then 20 μl of MicroScint-0 added to each well. 96-well plate scintillation counting was performed using a TopCount instrument (Packard BioScience) for 1 minute per sample well.

Assay [4] addresses T9, human Chemokine receptor CXCR2 (Homo sapiens, UniProt P25025).
T9 construct: expressed in transfected cells
T9 sequence (P25025 1-360): T6 sequence (P25025 1-360)
Briefly: CXCR2 membrane [125I]IL-8 radioligand binding assay. As to conditions: FIG. 2. As to the method: HEK 293 cells were transfected with CXCR2 receptor using the lipofection reagent Fugene 6 (Roche). […] Stable HEK-CXCR2 transfectants were grown to approximately 80% confluence in 10-layer cell factories in DMEM medium containing 10% (v/v) foetal calf serum and glutamine (2 mM) in a humidified incubator at 37° C., 5% CO2. Cells were harvested from the flask using Accutase at 37° C. for 3 to 5 minutes.
Cells were resuspended on ice in 60 mL hypotonic buffer at a density of 2×10^7 cells/mL. Membranes were prepared on ice by homogenisaton using a polytron tissue homogenizer set at 22000 rpm. The membrane preparation was purified by sucrose gradient centrifugation. In each of 4 centrifuge tubes 15 mL of cell membranes was layered onto 10 mL 41% (w/v) sucrose solution and the tubes centrifuged at 140000 g for 1 hour at 4° C. […]
Following incubation, the plate containing the assay mixture was filter-washed with 200 μL cold HEPES-buffered salt solution using a Millipore vacuum manifold. The filtration plate was allowed to air dry then either the individual filters were punched out into polypropylene test tubes and the radioactivity measured by direct gamma counting using a Cobra II Gamma counter (Packard BioScience) for 1 minute per sample or alternatively, the whole filtration plate was placed in a carrier plate and 50 μL of MicroScint-O added to each well. […]

CCR5, sequence (P51681 whole entry): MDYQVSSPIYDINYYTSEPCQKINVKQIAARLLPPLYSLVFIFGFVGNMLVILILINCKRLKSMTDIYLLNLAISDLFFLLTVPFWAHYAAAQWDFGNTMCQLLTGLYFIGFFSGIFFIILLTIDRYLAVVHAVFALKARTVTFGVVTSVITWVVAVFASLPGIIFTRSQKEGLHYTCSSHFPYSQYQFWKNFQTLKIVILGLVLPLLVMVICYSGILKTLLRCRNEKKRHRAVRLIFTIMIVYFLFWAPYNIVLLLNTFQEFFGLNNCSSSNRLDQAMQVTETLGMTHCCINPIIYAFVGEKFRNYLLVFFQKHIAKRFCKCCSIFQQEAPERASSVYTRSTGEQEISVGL
Protocol for wild type GST: Protein solutions (50 μL dilutions starting at 1.28 mg/ml) of either GST-CXCR2 fusion or wild type GST were then added, giving a total incubation volume of 200 μL per well. The plates were incubated for 2 hours at room temperature.
A GF-B filter plate was set up containing 50 μl of 1 mg/ml gelatine in PBS in each well, which was then filtered through the plate and discarded. 100 μl filter mix (160 mg/ml charcoal (dextran coated) in PBS containing 1 mg/ml gelatine) was then filtered through the plate and then 150 μl assay mix was then filtered through the prepared filter plate (The charcoal catches the excess un-bound compound). After filtering, 100 μl filtrate was transferred to a lumaplate and dried down in a 50° C. oven overnight and then counted on the TopCount instrument (Packard BioScience)

With `C[C@H](CO)Nc1nc(SCc2cccc(Cl)c2F)nc2[nH]c(=O)sc12` [Compound A], the half-inhibitory concentration (IC50) on CCR2b is 158 nM; against CXCR1 it was 251 nM; at CX3CR1, 251 nM; against CCR4, 7.94 µM. The “radiolabelled binding to GST-CXCR2 fusion protein on addition of excess cold compound” value in assay [1] is reported as “decrease in radiolabelled binding”. The “compound binding to wild type GST control protein” value on wild type GST was “minimal compound binding”. Further, the values for the inhibition at 10 µM at CCR1 and against CCR5 were 62% and 72%, respectively. The “activity (inhibition of IL-8-induced calcium release)” value on CXCR2 [2] was “active against CXCR2”.

As to `NS(=O)(=O)c1c(Cl)ccc(NC(=O)Nc2cccc(Cl)c2Cl)c1O` [Compound B], the “activity (inhibition of IL-8-induced calcium release)” value at CXCR2 [2] is given as “active against CXCR2”.

On to `C[C@H](CO)Nc1nc(SCc2ccccc2)nc2nc(N)sc12` [Compound C], for which the “binding to CXCR2 / displacement of radio-labelled Compound C” value on CXCR2 [3] is given as “can bind to CXCR2”. Also, in assay [4], the “inhibition of [125I]-IL-8 binding” value is on record as “able to inhibit the binding”.

Turning to “IL-8: C-X-C chemokine, endogenous CXCR2/CXCR1 agonist ligand; non-radioactive IL-8 used as competitor”, in assay [4], the “inhibition of [125I]-IL-8 binding” value is recorded as “able to inhibit the binding”.
